Laboratory results taken from patent publication US9409905B2, “Antibacterial compounds and methods for use” (PTC THERAPEUTICS, INC., priority 2011, dated 2016).
Values after ≈ are worked out from the molar mass of the structure shown.

How the values were obtained:
E. coli LZ3111 = assay: Antibacterial activity, MIC, quinolone resistant strain (Table 2); type: cell-based; conditions: Escherichia coli, LZ3111, read-out: MIC LZ3111
Outline: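 Broth microdilution. Read-out: MIC in μg/mL, taken as lowest concentration with no macroscopically visible growth.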

[1] = system: Escherichia coli (E. coli) BAS849; assay: Antibacterial activity, microbroth dilution MIC (Table 1); type: cell-based; conditions: microbroth dilution, super sensitive Gram-negative E. coli BAS849, read-out: MIC, BAS849
Outline: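 MIC (μg/mL) is taken as the lowest concentration with no macroscopically visible growth. Strains tested by microbroth dilution: Gram-positive S. aureus 29213, control Gram-negative E. coli 25922, and super-sensitive E. coli BAS849.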

[2] = system: Staphylococcus aureus (S. aureus) 29213; assay: as above; type: cell-based; conditions: microbroth dilution, Gram-positive S. aureus 29213, read-out: MIC, 29213
Outline: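 Broth microdilution against S. aureus 29213, E. coli 25922 and hypersensitive E. coli BAS849. MIC in μg/mL is the lowest drug concentration preventing macroscopically visible growth under test conditions.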

E. coli 25922 = assay: as above; type: cell-based, Escherichia coli; conditions: Escherichia coli; microbroth dilution; control Gram-negative E. coli 25922 strain; read-out: MIC, 25922
Outline: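 Each strain is exposed to test compound in a microbroth dilution series; visible growth is scored macroscopically, and the lowest growth-free concentration is recorded as MIC in μg/mL.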

Row | SMILES | MIC (E. coli LZ3111) | MIC [1] | MIC [2] | MIC (E. coli 25922)
1 | CCc1cc(C(=O)O)c(=O)[nH]c1-c1ccc2c(c1)cc(CN1CC3CC1CN3)n2C (centres unmarked) [Cpd 142, 6-(2-(2,5-diazabicyclo[2.2.1]heptan-2-ylmethyl)-1-methyl-1H-indol-5-yl)-5-ethyl-2-oxo-1,2-dihydropyridine-3-carboxylic acid] | 12.5 to 150 µg/mL (≈ 30.8 to 369 µM) | 3.5 to 12.5 µg/mL (≈ 8.61 to 30.8 µM) | 12.5 to 150 µg/mL (≈ 30.8 to 369 µM) | 12.5 to 150 µg/mL (≈ 30.8 to 369 µM)
2 | CCc1cc(C(=O)O)c(=O)[nH]c1-c1ccc2c(c1)cc(CN(C)C(C)=O)n2C [Cpd 145, 5-ethyl-6-(1-methyl-2-((N-methylacetamido)methyl)-1H-indol-5-yl)-2-oxo-1,2-dihydropyridine-3-carboxylic acid] | 12.5 to 150 µg/mL (≈ 32.8 to 393 µM) | < 1 µg/mL | 12.5 to 150 µg/mL (≈ 32.8 to 393 µM) | 3.5 to 12.5 µg/mL (≈ 9.18 to 32.8 µM)
3 | CCc1c(-c2ccc3c(c2)cc(CN2CCCC2)n3C)[nH]c(=O)c(C(=O)O)c1N [Cpd 329, 4-amino-5-ethyl-6-(1-methyl-2-(pyrrolidin-1-ylmethyl)-1H-indol-5-yl)-2-oxo-1,2-dihydropyridine-3-carboxylic acid] | 12.5 to 150 µg/mL (≈ 31.7 to 380 µM) | < 1 µg/mL | 12.5 to 150 µg/mL (≈ 31.7 to 380 µM) | 3.5 to 12.5 µg/mL (≈ 8.87 to 31.7 µM)
4 | CCc1cc(C(=O)O)c(=O)[nH]c1-c1ccc2c(c1)cc(CN1CCc3ccccc3C1)n2C [Cpd 134, 6-(2-((3,4-dihydroisoquinolin-2(1H)-yl)methyl)-1-methyl-1H-indol-5-yl)-5-ethyl-2-oxo-1,2-dihydropyridine-3-carboxylic acid] | 12.5 to 150 µg/mL (≈ 28.3 to 340 µM) | < 1 µg/mL | 3.5 to 12.5 µg/mL (≈ 7.93 to 28.3 µM) | 1 to 3.5 µg/mL (≈ 2.26 to 7.93 µM)
5 | CCc1c(-c2ccc3c(c2)cc(CN2C[C@H]4C[C@@H](N(Cc5ccccc5)Cc5ccccc5)C[C@H]4C2)n3C)[nH]c(=O)c(C(=O)O)c1O [Cpd 286, 6-(2-(((3aR,5r,6aS)-5-(dibenzylamino)hexahydrocyclopenta[c]pyrrol-2(1H)-yl)methyl)-1-methyl-1H-indol-5-yl)-5-ethyl-4-hydroxy-2-oxo-1,2-dihydropyridine-3-carboxylic acid] | 12.5 to 150 µg/mL (≈ 19.8 to 238 µM) | 12.5 to 150 µg/mL (≈ 19.8 to 238 µM) | 12.5 to 150 µg/mL (≈ 19.8 to 238 µM) | 12.5 to 150 µg/mL (≈ 19.8 to 238 µM)
6 | CCc1c(-c2ccc3nc(C)oc3c2)[nH]c(=O)c(C(=O)O)c1O [Cpd 12, 5-ethyl-4-hydroxy-6-(2-methylbenzo[d]oxazol-6-yl)-2-oxo-1,2-dihydropyridine-3-carboxylic acid] | 12.5 to 150 µg/mL (≈ 39.8 to 477 µM) | 1 to 3.5 µg/mL (≈ 3.18 to 11.1 µM) | 12.5 to 150 µg/mL (≈ 39.8 to 477 µM) | 12.5 to 150 µg/mL (≈ 39.8 to 477 µM)
7 | CCc1cc(C(=O)O)c(=O)[nH]c1-c1ccc2c(c1)cc(C1=NCCCN1)n2C [Cpd 86, 5-ethyl-6-(1-methyl-2-(1,4,5,6-tetrahydropyrimidin-2-yl)-1H-indol-5-yl)-2-oxo-1,2-dihydropyridine-3-carboxylic acid] | 12.5 to 150 µg/mL (≈ 33 to 396 µM) | 12.5 to 150 µg/mL (≈ 33 to 396 µM) | 12.5 to 150 µg/mL (≈ 33 to 396 µM) | 12.5 to 150 µg/mL (≈ 33 to 396 µM)
8 | CCc1cc(C(=O)O)c(=O)[nH]c1-c1cc2cc(CN3CCCC3)n(C)c2cc1C [Cpd 89, 6-(1,6-dimethyl-2-(pyrrolidin-1-ylmethyl)-1H-indol-5-yl)-5-ethyl-2-oxo-1,2-dihydropyridine-3-carboxylic acid] | 12.5 to 150 µg/mL (≈ 31.8 to 381 µM) | 12.5 to 150 µg/mL (≈ 31.8 to 381 µM) | 12.5 to 150 µg/mL (≈ 31.8 to 381 µM) | 12.5 to 150 µg/mL (≈ 31.8 to 381 µM)
9 | CCc1c(-c2ccc3c(c2)cc(CN2CCCCC2C(F)(F)F)n3C)[nH]c(=O)c(C(=O)O)c1O (centres unmarked) [Cpd 258, 5-ethyl-4-hydroxy-6-(1-methyl-2-((2-(trifluoromethyl)piperidin-1-yl)methyl)-1H-indol-5-yl)-2-oxo-1,2-dihydropyridine-3-carboxylic acid] | 12.5 to 150 µg/mL (≈ 26.2 to 314 µM) | < 1 µg/mL | 3.5 to 12.5 µg/mL (≈ 7.33 to 26.2 µM) | 12.5 to 150 µg/mL (≈ 26.2 to 314 µM)
10 | CCc1cc(C(=O)O)c(=O)[nH]c1-c1ccc2c(c1)c(C(N)=O)cn2C [Cpd 73, 6-(3-carbamoyl-1-methyl-1H-indol-5-yl)-5-ethyl-2-oxo-1,2-dihydropyridine-3-carboxylic acid] | 12.5 to 150 µg/mL (≈ 36.8 to 442 µM) | 12.5 to 150 µg/mL (≈ 36.8 to 442 µM) | 12.5 to 150 µg/mL (≈ 36.8 to 442 µM) | 12.5 to 150 µg/mL (≈ 36.8 to 442 µM)
11 | Cn1c(CN2CCC2)cc2cc(-c3[nH]c(=O)c(C(=O)O)c(O)c3-c3ccc(F)cc3)ccc21 [Cpd 312, 6-(2-(azetidin-1-ylmethyl)-1-methyl-1H-indol-5-yl)-5-(4-fluorophenyl)-4-hydroxy-2-oxo-1,2-dihydropyridine-3-carboxylic acid] | 12.5 to 150 µg/mL (≈ 27.9 to 335 µM) | < 1 µg/mL | 12.5 to 150 µg/mL (≈ 27.9 to 335 µM) | 3.5 to 12.5 µg/mL (≈ 7.82 to 27.9 µM)
